Molecules are shown by their SMILES.

The target of the first assay is T1, KDM5A (Homo sapiens, UniProt P29375).
T1 construct: Full length recombinant Flag tagged KDM5A protein was purified from Sf9 insect cells; Flag; made in house; host or cells: Sf9 insect cells
T1 sequence (P29375 whole entry): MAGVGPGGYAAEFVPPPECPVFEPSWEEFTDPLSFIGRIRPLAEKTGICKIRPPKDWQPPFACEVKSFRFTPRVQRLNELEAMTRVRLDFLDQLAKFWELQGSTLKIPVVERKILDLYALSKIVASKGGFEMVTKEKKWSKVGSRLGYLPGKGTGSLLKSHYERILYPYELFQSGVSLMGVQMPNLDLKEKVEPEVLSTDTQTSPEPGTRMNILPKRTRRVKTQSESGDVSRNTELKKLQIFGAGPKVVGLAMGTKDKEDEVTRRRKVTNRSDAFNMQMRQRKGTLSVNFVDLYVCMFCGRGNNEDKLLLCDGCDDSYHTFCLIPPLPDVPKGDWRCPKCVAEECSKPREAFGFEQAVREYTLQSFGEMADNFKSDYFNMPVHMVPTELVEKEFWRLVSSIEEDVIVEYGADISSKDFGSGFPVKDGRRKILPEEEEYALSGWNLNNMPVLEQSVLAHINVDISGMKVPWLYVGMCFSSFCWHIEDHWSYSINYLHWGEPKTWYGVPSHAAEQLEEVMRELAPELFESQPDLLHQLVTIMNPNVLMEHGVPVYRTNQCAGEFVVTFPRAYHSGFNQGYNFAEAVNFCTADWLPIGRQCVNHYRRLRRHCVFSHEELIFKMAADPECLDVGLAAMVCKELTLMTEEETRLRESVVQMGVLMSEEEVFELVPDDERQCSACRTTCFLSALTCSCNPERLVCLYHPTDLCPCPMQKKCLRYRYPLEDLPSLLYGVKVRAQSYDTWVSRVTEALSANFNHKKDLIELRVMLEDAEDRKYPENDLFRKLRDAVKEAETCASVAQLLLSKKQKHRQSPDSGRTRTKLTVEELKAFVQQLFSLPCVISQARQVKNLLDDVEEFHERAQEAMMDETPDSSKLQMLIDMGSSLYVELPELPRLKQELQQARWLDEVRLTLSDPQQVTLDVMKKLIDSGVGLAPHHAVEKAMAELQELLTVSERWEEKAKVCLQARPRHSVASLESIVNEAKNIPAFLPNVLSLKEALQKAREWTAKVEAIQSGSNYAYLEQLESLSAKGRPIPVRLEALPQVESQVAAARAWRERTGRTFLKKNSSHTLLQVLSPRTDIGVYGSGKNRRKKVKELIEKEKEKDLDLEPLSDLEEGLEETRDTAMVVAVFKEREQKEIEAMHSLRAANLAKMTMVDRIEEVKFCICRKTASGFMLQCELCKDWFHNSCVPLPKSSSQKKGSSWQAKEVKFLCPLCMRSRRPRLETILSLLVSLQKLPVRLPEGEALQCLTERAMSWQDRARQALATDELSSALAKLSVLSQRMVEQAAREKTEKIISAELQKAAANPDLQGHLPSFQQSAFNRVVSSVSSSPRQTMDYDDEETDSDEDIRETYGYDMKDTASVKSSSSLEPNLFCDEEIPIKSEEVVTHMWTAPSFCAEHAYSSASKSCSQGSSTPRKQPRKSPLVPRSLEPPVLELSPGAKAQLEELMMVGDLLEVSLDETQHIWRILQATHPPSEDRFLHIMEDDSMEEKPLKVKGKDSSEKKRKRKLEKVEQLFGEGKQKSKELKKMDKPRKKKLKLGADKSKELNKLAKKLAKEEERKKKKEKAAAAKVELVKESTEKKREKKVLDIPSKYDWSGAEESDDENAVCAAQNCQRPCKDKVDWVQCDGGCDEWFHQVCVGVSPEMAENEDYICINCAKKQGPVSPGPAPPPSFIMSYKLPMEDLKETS
As to the kind of experiment: KDM5A Demethylase Assay (MassSpec Assay-A). It counts as biochemical. Particulars: full length recombinant Flag tagged KDM5A, 20 nM; MassSpec readout; biotinylated H3K9me1 peptide 4.0 μM; read-out: A KDM5A MS (IC50). The protocol: Full length recombinant Flag tagged KDM5A protein was purified from […] insect cells. The demethylation reaction buffer contained 50 mM TrisCl pH 7.4, 0.01% Triton X-100, 0.025 mg/mL BSA, 1 mM ascorbate (Cat# A4034, Sigma Aldrich), 2 mM TCEP (Cat# D9779, Sigma Aldrich), 2.0 μM α-ketoglutarate (# K2010, Sigma Aldrich) and 50 μM Fe2(NH4)2(SO4)2 (Cat# F1543, Sigma Aldrich). In a 25 μL demethylation reaction system, 20 nM recombinant KDM5A and was incubated with compounds for 10 minutes in the above buffer, and then […] (# K2010, Sigma Aldrich), 4.0 μM biotinylated H3K9me1 peptide (1-21 aa), and Fe2(NH4)2(SO4)2 were added to initiate the reaction. (All reagent concentrations are final reagent concentrations.) Reactions were incubated for 30 minutes at room temperature, and then quenched by addition of an equal volume of 1% formic acid. After termination, plates were sealed and frozen at −80° C. for analysis.
As to `CCc1c(C)[nH]c2c(-n3cnc(-c4ccccn4)c3)cnn2c1=O` [Example 48, 6-Ethyl-5-methyl-3-(4-(pyridin-2-yl)-1H-imidazol-1-yl)pyrazolo[1,5-a]pyrimidin-7(4H)-one], the IC50 was 0.0705 µM.
For `CCc1c(C)[nH]c2c(-n3cnc(C(N)=O)c3)cnn2c1=O` [Example 55, 1-(6-Ethyl-5-methyl-7-oxo-4,7-dihydropyrazolo[1,5-a]pyrimidin-3-yl)-1H-imidazole-4-carboxamide], the IC50 turned out to be 0.0945 µM.
On the same count and under the same terms, to `CCc1c(C)[nH]c2c(-c3cnn(-c4cc(C)ccn4)c3)cnn2c1=O` [Example 71, 6-ethyl-5-methyl-3-(1-(4-methylpyridin-2-yl)-1H-pyrazol-4-yl)pyrazolo[1,5-a]pyrimidin-7(4H)-one] belongs 0.0263 µM; to `CCc1c(C)[nH]c2c(-n3cnc(C(=O)N(C)C)c3)cnn2c1=O` [Example 75, 1-(6-ethyl-5-methyl-7-oxo-4,7-dihydropyrazolo[1,5-a]pyrimidin-3-yl)-N,N-dimethyl-1H-imidazole-4-carboxamide], 0.178 µM; to `CCc1c(C)[nH]c2c(-n3cnc4ccccc43)cnn2c1=O` [Example 82, 3-(1H-benzo[d]imidazol-1-yl)-6-ethyl-5-methylpyrazolo[1,5-a]pyrimidin-7(4H)-one], 80 µM.
Take `CCc1c(C)[nH]c2c(-c3cc(-c4ccccn4)on3)cnn2c1=O` [Example 60, 6-Ethyl-5-methyl-3-(5-(pyridin-2-yl)isoxazol-3-yl)pyrazolo[1,5-a]pyrimidin-7(4H)-one]: the IC50 was found to be 4 µM.
For `CCc1c(C)[nH]c2c(-n3ccnc3C)cnn2c1=O` [Example 77, 6-ethyl-5-methyl-3-(2-methyl-1H-imidazol-1-yl)pyrazolo[1,5-a]pyrimidin-7(4H)-one], the IC50 came to 3.38 µM.
Turning to `CCc1c(C)[nH]c2c(-c3cnn(-c4cc5ccccc5cn4)c3)cnn2c1=O` [Example 68, 6-ethyl-3-(1-(isoquinolin-3-yl)-1H-pyrazol-4-yl)-5-methylpyrazolo[1,5-a]pyrimidin-7(4H)-one], the IC50 turned out to be 0.0369 µM.
Same read-out and setting: to `CCc1c(C)[nH]c2c(-c3nnc(-c4ccccn4)o3)cnn2c1=O` [Example 57, 6-Ethyl-5-methyl-3-(5-(pyridin-2-yl)-1,3,4-oxadiazol-2-yl)pyrazolo[1,5-a]pyrimidin-7(4H)-one] belongs 0.268 µM; to `CCc1c(C)[nH]c2c(-c3cnn(-c4cccnn4)c3)cnn2c1=O` [Example 69, 6-ethyl-5-methyl-3-(1-(pyridazin-3-yl)-1H-pyrazol-4-yl)pyrazolo[1,5-a]pyrimidin-7(4H)-one], 0.233 µM.
On the same count and under the same terms, to `CCc1c(C)[nH]c2c(-c3nnc(C(N)=O)o3)cnn2c1=O` [Example 56, 5-(6-Ethyl-5-methyl-7-oxo-4,7-dihydropyrazolo[1,5-a]pyrimidin-3-yl)-1,3,4-oxadiazole-2-carboxamide] belongs 0.276 µM; to `CCc1c(C)[nH]c2c(-n3cnc(-c4cscn4)c3)cnn2c1=O` [Example 53, 6-Ethyl-5-methyl-3-(4-(thiazol-4-yl)-1H-imidazol-1-yl)pyrazolo[1,5-a]pyrimidin-7(4H)-one], 0.453 µM.
On the same count and under the same terms, under `CCc1c(C)[nH]c2c(-c3cnn(-c4ncccc4C)c3)cnn2c1=O` [Example 67, 6-ethyl-5-methyl-3-(1-(3-methylpyridin-2-yl)-1H-pyrazol-4-yl)pyrazolo[1,5-a]pyrimidin-7(4H)-one] stands 0.363 µM; under `CCc1c(C)[nH]c2c(-c3nc(-c4ccccn4)no3)cnn2c1=O` [Example 59, 6-Ethyl-5-methyl-3-(3-(pyridin-2-yl)-1,2,4-oxadiazol-5-yl)pyrazolo[1,5-a]pyrimidin-7(4H)-one], 0.518 µM.
Regarding `CCc1c(-c2ccccc2)[nH]c2c(-n3cnc(-c4ccccn4)c3)cnn2c1=O` [Example 47, 6-ethyl-5-phenyl-3-(4-(pyridin-2-yl)-1H-imidazol-1-yl)pyrazolo[1,5-a]pyrimidin-7(4H)-one], the IC50 amounted to 0.574 µM.
On the same count and under the same terms, to `CCc1c(C)[nH]c2c(-n3cncc3I)cnn2c1=O` [Example 81, 6-ethyl-3-(5-iodo-1H-imidazol-1-yl)-5-methylpyrazolo[1,5-a]pyrimidin-7(4H)-one] belongs 3.05 µM; to `CCc1c(C)[nH]c2c(-n3cnc(C(=O)NC)c3)cnn2c1=O` [Example 74, 1-(6-ethyl-5-methyl-7-oxo-4,7-dihydropyrazolo[1,5-a]pyrimidin-3-yl)-N-methyl-1H-imidazole-4-carboxamide], 0.996 µM; to `CCc1c(C)[nH]c2c(-c3nc(C(N)=O)no3)cnn2c1=O` [Example 58, 5-(6-Ethyl-5-methyl-7-oxo-4,7-dihydropyrazolo[1,5-a]pyrimidin-3-yl)-1,2,4-oxadiazole-3-carboxamide], 0.332 µM.
The same measure, in the same setting: under `CCc1c(C)[nH]c2c(-c3cnn(-c4cnccn4)c3)cnn2c1=O` [Example 72, 6-ethyl-5-methyl-3-(1-(pyrazin-2-yl)-1H-pyrazol-4-yl)pyrazolo[1,5-a]pyrimidin-7(4H)-one] stands 0.076 µM; under `CCc1c(C)[nH]c2c(-c3cnn(-c4nccc(C)n4)c3)cnn2c1=O` [Example 1], 0.0263 µM; under `CCc1c(C)[nH]c2c(-n3cnc(-c4cccnc4)c3)cnn2c1=O` [Example 45, 6-ethyl-5-methyl-3-(4-(pyridin-3-yl)-1H-imidazol-1-yl)pyrazolo[1,5-a]pyrimidin-7(4H)-one], 6.32 µM.
Still for that read-out and setting: under `Cc1[nH]c2c(-n3cnc(-c4ccccn4)c3)cnn2c(=O)c1C` [Example 73, 5,6-dimethyl-3-(4-(pyridin-2-yl)-1H-imidazol-1-yl)pyrazolo[1,5-a]pyrimidin-7(4H)-one] stands 0.0537 µM.
On to `CCc1c(C)[nH]c2c(-n3cnc(-c4ncccn4)c3)cnn2c1=O` [Example 54, 6-ethyl-5-methyl-3-(4-(pyrimidin-2-yl)-1H-imidazol-1-yl)pyrazolo[1,5-a]pyrimidin-7(4H)-one], for which the IC50 came to 0.538 µM.
Consider `CCc1[nH]c2c(-n3cnc(-c4ccccn4)c3)cnn2c(=O)c1CC` [Example 51, 5,6-Diethyl-3-(4-(pyridin-2-yl)-1H-imidazol-1-yl)pyrazolo[1,5-a]pyrimidin-7(4H)-one], for which the IC50 came to 0.0708 µM.
Still for that read-out and setting: to `CCc1c(-c2ccccc2)[nH]c2c(-n3ccnc3)cnn2c1=O` [Example 79, 6-ethyl-3-(1H-imidazol-1-yl)-5-phenylpyrazolo[1,5-a]pyrimidin-7(4H)-one] belongs 43.2 µM; to `Cc1c(-c2ccccc2)[nH]c2c(-n3cnc(-c4ccccn4)c3)cnn2c1=O` [Example 52, 6-Methyl-5-phenyl-3-(4-(pyridin-2-yl)-1H-imidazol-1-yl)pyrazolo[1,5-a]pyrimidin-7(4H)-one], 0.47 µM.
On the same count and under the same terms, to `CCc1c(C)[nH]c2c(-c3cnn(-c4cccc(OC)n4)c3)cnn2c1=O` [Example 70, 6-ethyl-3-(1-(6-methoxypyridin-2-yl)-1H-pyrazol-4-yl)-5-methylpyrazolo[1,5-a]pyrimidin-7(4H)-one] belongs 3.73 µM.

A further assay concerns the target T1, KDM5A. As to the kind of experiment: KDM5A Demethylase Assay (TR-FRET Assay-B). Format: biochemical. Particulars: full length recombinant Flag tagged KDM5A, 2 nM, TrisCl pH 7.4, 3.0 μM α-ketoglutarate, read-out: B KDM5A HTRF (IC50).
Procedure: Full length recombinant Flag tagged KDM5A protein was purified from Sf9 insect cells. The demethylation reaction buffer contained 50 mM TrisCl pH 7.4, 0.01% Triton X-100, 0.025 mg/mL BSA, 1 mM ascorbate, 2 mM TCEP, 3.0 μM α-ketoglutarate, and 50 μM Fe2(NH4)2(SO4)2. […] After a one hour incubation assays were read on a Perkin-Elmer Envision equipped with a laser source and appropriate filters.
Turning to `CCc1c(C)[nH]c2c(-c3cnn(-c4cc(OC)ccn4)c3)cnn2c1=O` [Example 15, 6-ethyl-3-(1-(4-methoxypyridin-2-yl)-1H-pyrazol-4-yl)-5-methylpyrazolo[1,5-a]pyrimidin-7(4H)-one], the half-inhibitory concentration (IC50) worked out at 0.0661 µM.
On the same count and under the same terms, to `CCc1c(C)[nH]c2c(-c3cnn(-c4cc(C(=O)O)ccn4)c3)cnn2c1=O` [Example 10, 2-(4-(6-ethyl-5-methyl-7-oxo-4,7-dihydropyrazolo[1,5-a]pyrimidin-3-yl)-1H-pyrazol-1-yl)isonicotinic acid] belongs 0.201 µM; to `Cc1ccnc(-n2cc(-c3cnn4c(=O)c(C5CC5)c(C)[nH]c34)cn2)c1` [Example 28, 6-cyclopropyl-5-methyl-3-(1-(4-methylpyridin-2-yl)-1H-pyrazol-4-yl)pyrazolo[1,5-a]pyrimidin-7(6H)-one], 0.0134 µM.
Same read-out and setting: to `Cc1c(C2CC2)[nH]c2c(-c3cnn(-c4ccccn4)c3)cnn2c1=O` [Example 39, 5-cyclopropyl-6-methyl-3-(1-(pyridin-2-yl)-1H-pyrazol-4-yl)pyrazolo[1,5-a]pyrimidin-7(4H)-one] belongs 0.624 µM.
The same measure, in the same setting: to `CCc1c(C)[nH]c2c(-c3cnn(-c4ncc(N(C)C)cn4)c3)cnn2c1=O` [Example 5, 3-(1-(5-(dimethylamino)pyrimidin-2-yl)-1H-pyrazol-4-yl)-6-ethyl-5-methylpyrazolo[1,5-a]pyrimidin-7(4H)-one] belongs 0.0603 µM; to `CCc1c(C)[nH]c2c(-c3cnn(-c4ncc(C)cn4)c3)cnn2c1=O` [Example 2, 6-ethyl-5-methyl-3-(1-(5-methylpyrimidin-2-yl)-1H-pyrazol-4-yl)pyrazolo[1,5-a]pyrimidin-7(4H)-one], 0.0161 µM.
Consider `Cc1[nH]c2c(-c3cnn(-c4ncccn4)c3)cnn2c(=O)c1C(C)C` [Example 19, 6-isopropyl-5-methyl-3-(1-(pyrimidin-2-yl)-1H-pyrazol-4-yl)pyrazolo[1,5-a]pyrimidin-7(4H)-one], for which the IC50 was 0.0057 µM.
Regarding `CCc1c(C)[nH]c2c(-c3cnn(-c4nccc(N5CCCC5)n4)c3)cnn2c1=O` [Example 6, 6-ethyl-5-methyl-3-(1-(4-(pyrrolidin-1-yl)pyrimidin-2-yl)-1H-pyrazol-4-yl)pyrazolo[1,5-a]pyrimidin-7(4H)-one], the IC50 was 0.0529 µM.

The values above are taken from patent publication US9505767B2, “Pyrazolo[1,5-A]pyrimidin-7(4H)-onehistone demethylase inhibitors” (Genentech, Inc., priority 2013, dated 2016).
